System: ATP blood levels
Assay: Phase 1 SAD/MAD: blood ATP (LC-MS/MS) in healthy volunteers
Format: in vivo, human
Procedure: In this study, SAD/MAD cohorts are randomized (3 to 1) to receive Compound 1 or placebo (P). Compound 1 was evaluated first in 4 healthy SAD cohorts and 4 healthy MAD (14-day dosing period) cohorts. Based on the safety, and PK/PD profile from HS, Compound 1 is then evaluated in 1 SCD SAD cohort and 2 SCD MAD cohorts. Specifically, based on the safety and pharmacokinetic/pharmacodynamics (PK/PD) profile in healthy volunteer studies, Compound 1 is evaluated in patients (pts) with SCD, first in a single dose (SD or SAD) cohort and then in multiple-dose (MD or MAD) cohorts (14-day and 12-week). Safety assessments include AEs, vital signs, ECGs and laboratory parameters. PK/PD blood sampling was performed on Day 1 (SAD/MAD) and Day 14 (MAD) and up to 72 h after the last dose and at the end-of-study visit. PD parameters included 2,3-DPG, ATP, and p50 in all cohorts with additional PD studies (including oxygen scan) performed only in the SCD cohorts. PD parameters included 2,3-DPG, ATP, p50, RBC deformability with controlled deoxygenation and reoxygenation (Lorrca® oxygen scan) and varying osmolality (Lorrca® osmoscan)). To maintain study blind, pt identifiers were removed when needed.
In the MAD cohorts, the subjects' blood ATP levels were measured […] by a qualified LC-MS/MS method for the quantitation of ATP in blood. […] Table 20A reports the median percentage change in blood ATP levels, relative to baseline, measured over time after the first dose on days 1 and 14 in healthy volunteers who received daily doses of Compound 1 (100 mg BID, 200 mg BID, 300 mg BID, or 400 mg QD) or placebo for 14 days. Table 20B reports the mean percentage change in ATP blood levels, relative to baseline, measured over time after the first dose on days 1 and 14 in healthy volunteers who received daily doses of Compound 1 (100 mg BID, 200 mg BID, 300 mg BID, or 400 mg QD) for 14 days.
The following procedures are employed for the analysis of ATP and 2,3-DPG in human whole blood K2EDTA using a protein precipitation extraction procedure and analysis by LC-MS/MS.
The following procedures are used for sample extraction prior to analysis via LC-MS/MS. 15.0 μL of the calibration standards, quality controls, matrix blanks, and samples are aliquoted into a 96-well plate. 50.0 μL of the internal standard spiking solution is added to all samples on the plate, with the exception of the matrix blank samples; 50.0 μL of water is added to the matrix blank samples. Subsequently, 150 μL of water is added to all samples on the plate. The plate is then covered and agitated by vortex at high speed for ten minutes, after which 750 μL of methanol is added to all samples on the plate. The plate is covered and agitated by vortex for approximately 1 minute. The plate is then centrifuged at approximately 3500 RPM at approximately 4° C. for five minutes. After centrifugation, a liquid handler is used to transfer 50 μL of each sample to a new 96-well plate, and 200 μL of acetonitrile is added to all samples on the plate. The newly prepared plate is covered and agitated by vortex for approximately 1 minute. The plate is then centrifuged at approximately 3500 RPM at approximately 4° C. for 2 minutes.

[1] = HV 100 mg BID, Day 1, 0 h after first daily dose
[2] = HV 100 mg BID, Day 1, 6 h after first daily dose
[3] = HV 100 mg BID, Day 1, 8 h after first daily dose
[4] = HV 100 mg BID, Day 1, 12 h after first daily dose
[5] = HV 100 mg BID, Day 1, 16 h after first daily dose
[6] = HV 100 mg BID, Day 1, 24 h after first daily dose
[7] = HV 100 mg BID, Day 14, 0 h after first daily dose
[8] = HV 100 mg BID, Day 14, 6 h after first daily dose
[9] = HV 100 mg BID, Day 14, 8 h after first daily dose
[10] = HV 100 mg BID, Day 14, 12 h after first daily dose
[11] = HV 100 mg BID, Day 14, 16 h after first daily dose
[12] = HV 100 mg BID, Day 14, 24 h after first daily dose
[13] = HV 100 mg BID, Day 14, 48 h after first daily dose
[14] = HV 100 mg BID, Day 14, 72 h after first daily dose
[15] = HV 200 mg BID, Day 1, 0 h after first daily dose
[16] = HV 200 mg BID, Day 1, 6 h after first daily dose
[17] = HV 200 mg BID, Day 1, 8 h after first daily dose
[18] = HV 200 mg BID, Day 1, 12 h after first daily dose
[19] = HV 200 mg BID, Day 1, 16 h after first daily dose
[20] = HV 200 mg BID, Day 1, 24 h after first daily dose
[21] = HV 200 mg BID, Day 14, 0 h after first daily dose
[22] = HV 200 mg BID, Day 14, 6 h after first daily dose
[23] = HV 200 mg BID, Day 14, 8 h after first daily dose
[24] = HV 200 mg BID, Day 14, 12 h after first daily dose
[25] = HV 200 mg BID, Day 14, 16 h after first daily dose
[26] = HV 200 mg BID, Day 14, 24 h after first daily dose
[27] = HV 200 mg BID, Day 14, 48 h after first daily dose
[28] = HV 200 mg BID, Day 14, 72 h after first daily dose
[29] = HV 300 mg BID, Day 1, 0 h after first daily dose
[30] = HV 300 mg BID, Day 1, 6 h after first daily dose
[31] = HV 300 mg BID, Day 1, 8 h after first daily dose
[32] = HV 300 mg BID, Day 1, 12 h after first daily dose
[33] = HV 300 mg BID, Day 1, 16 h after first daily dose
[34] = HV 300 mg BID, Day 1, 24 h after first daily dose
[35] = HV 300 mg BID, Day 14, 0 h after first daily dose
[36] = HV 300 mg BID, Day 14, 6 h after first daily dose
[37] = HV 300 mg BID, Day 14, 8 h after first daily dose
[38] = HV 300 mg BID, Day 14, 12 h after first daily dose
[39] = HV 300 mg BID, Day 14, 16 h after first daily dose
[40] = HV 300 mg BID, Day 14, 24 h after first daily dose
[41] = HV 300 mg BID, Day 14, 48 h after first daily dose
[42] = HV 300 mg BID, Day 14, 72 h after first daily dose
[43] = HV 400 mg QD, Day 1, 0 h after first daily dose
[44] = HV 400 mg QD, Day 1, 6 h after first daily dose
[45] = HV 400 mg QD, Day 1, 8 h after first daily dose
[46] = HV 400 mg QD, Day 1, 12 h after first daily dose

O=C([C@H](CO)c1ccccc1)N1CC2=C(C1)CN(S(=O)(=O)c1cnc3c(c1)OCCO3)C2 (single isomer, unassigned) [Compound 1]
Mean Percentage Change in ATP Levels [1]: 0% | Median Percentage Change in ATP Levels [1]: 0% | Mean Percentage Change in ATP Levels [2]: −5.6% | Median Percentage Change in ATP Levels [2]: −5.7% | Mean Percentage Change in ATP Levels [3]: −2.0% | Median Percentage Change in ATP Levels [3]: 0.0% | Mean Percentage Change in ATP Levels [4]: −0.6% | Median Percentage Change in ATP Levels [4]: −1.2% | Mean Percentage Change in ATP Levels [5]: 1.9% | Median Percentage Change in ATP Levels [5]: 3.3% | Mean Percentage Change in ATP Levels [6]: 4.4% | Median Percentage Change in ATP Levels [6]: 5.7% | Mean Percentage Change in ATP Levels [7]: 49% | Median Percentage Change in ATP Levels [7]: 42% | Mean Percentage Change in ATP Levels [8]: 45% | Median Percentage Change in ATP Levels [8]: 44% | Mean Percentage Change in ATP Levels [9]: 49% | Median Percentage Change in ATP Levels [9]: 48% | Mean Percentage Change in ATP Levels [10]: 45% | Median Percentage Change in ATP Levels [10]: 45% | Mean Percentage Change in ATP Levels [11]: 47% | Median Percentage Change in ATP Levels [11]: 45% | Mean Percentage Change in ATP Levels [12]: 55% | Median Percentage Change in ATP Levels [12]: 55% | Mean Percentage Change in ATP Levels [13]: 51% | Median Percentage Change in ATP Levels [13]: 52% | Mean Percentage Change in ATP Levels [14]: 47% | Median Percentage Change in ATP Levels [14]: 49% | Mean Percentage Change in ATP Levels [15]: 0% | Median Percentage Change in ATP Levels [15]: 0% | Mean Percentage Change in ATP Levels [16]: 1.7% | Median Percentage Change in ATP Levels [16]: −4.3% | Mean Percentage Change in ATP Levels [17]: 4.7% | Median Percentage Change in ATP Levels [17]: 5.4% | Mean Percentage Change in ATP Levels [18]: 6.7% | Median Percentage Change in ATP Levels [18]: 4.3% | Mean Percentage Change in ATP Levels [19]: 5.6% | Median Percentage Change in ATP Levels [19]: 6.0% | Mean Percentage Change in ATP Levels [20]: −0.2% | Median Percentage Change in ATP Levels [20]: 1.1% | Mean Percentage Change in ATP Levels [21]: 59% | Median Percentage Change in ATP Levels [21]: 62% | Mean Percentage Change in ATP Levels [22]: 50% | Median Percentage Change in ATP Levels [22]: 48% | Mean Percentage Change in ATP Levels [23]: 56% | Median Percentage Change in ATP Levels [23]: 58% | Mean Percentage Change in ATP Levels [24]: 56% | Median Percentage Change in ATP Levels [24]: 56% | Mean Percentage Change in ATP Levels [25]: 53% | Median Percentage Change in ATP Levels [25]: 57% | Mean Percentage Change in ATP Levels [26]: 66% | Median Percentage Change in ATP Levels [26]: 65% | Mean Percentage Change in ATP Levels [27]: 62% | Median Percentage Change in ATP Levels [27]: 70% | Mean Percentage Change in ATP Levels [28]: 57% | Median Percentage Change in ATP Levels [28]: 54% | Mean Percentage Change in ATP Levels [29]: 0% | Median Percentage Change in ATP Levels [29]: 0% | Mean Percentage Change in ATP Levels [30]: −4.5% | Median Percentage Change in ATP Levels [30]: −7.6% | Mean Percentage Change in ATP Levels [31]: −2.0% | Median Percentage Change in ATP Levels [31]: −2.4% | Mean Percentage Change in ATP Levels [32]: −0.6% | Median Percentage Change in ATP Levels [32]: 0.9% | Mean Percentage Change in ATP Levels [33]: −0.5% | Median Percentage Change in ATP Levels [33]: −1.1% | Mean Percentage Change in ATP Levels [34]: 2.2% | Median Percentage Change in ATP Levels [34]: 1.8% | Mean Percentage Change in ATP Levels [35]: 46% | Median Percentage Change in ATP Levels [35]: 46% | Mean Percentage Change in ATP Levels [36]: 51% | Median Percentage Change in ATP Levels [36]: 51% | Mean Percentage Change in ATP Levels [37]: 52% | Median Percentage Change in ATP Levels [37]: 50% | Mean Percentage Change in ATP Levels [38]: 49% | Median Percentage Change in ATP Levels [38]: 51% | Mean Percentage Change in ATP Levels [39]: 52% | Median Percentage Change in ATP Levels [39]: 53% | Mean Percentage Change in ATP Levels [40]: 56% | Median Percentage Change in ATP Levels [40]: 52% | Mean Percentage Change in ATP Levels [41]: 57% | Median Percentage Change in ATP Levels [41]: 58% | Mean Percentage Change in ATP Levels [42]: 48% | Median Percentage Change in ATP Levels [42]: 49% | Mean Percentage Change in ATP Levels [43]: 0% | Median Percentage Change in ATP Levels [43]: 0% | Mean Percentage Change in ATP Levels [44]: −1.2% | Median Percentage Change in ATP Levels [44]: −1.7% | Mean Percentage Change in ATP Levels [45]: −2.9% | Median Percentage Change in ATP Levels [45]: −4.5% | Mean Percentage Change in ATP Levels [46]: 2.4% | Median Percentage Change in ATP Levels [46]: 3.5% | Mean Percentage Change in ATP Levels (HV 400 mg QD, Day 1, 16 h after first daily dose): −2.2%

Reference: patent publication US12128035B2, “Activating pyruvate kinase R” (Novo Nordisk Health Care AG, priority 2021, dated 2024)
